Literature values, collected in patent publication US12599565B2, “Stable benzimidazole formulation” (DEXCEL PHARMA TECHNOLOGIES LTD., priority 2008, dated 2026).

half life (pH 11): about 300 days
half-life of degradation (pH values below 4.0): less than 10 minutes
SMILES: COc1ccc2[nH]c([S+]([O-])Cc3ncc(C)c(OC)c3C)nc2c1 (centres unmarked) [Omeprazole, 5-methoxy-2(((4-methoxy-3,5-dimethyl-2-pyridinyl)methyl)sulfinyl)-1H-benzimidazole]
